Patent publication US10870647B2, “Imidazopyridine derivative, method for preparing same, and pharmaceutical composition containing same as active ingredient for preventing or treating cancer” (DAEGU-GYEONGBUK MEDICAL INNOVATION FOUNDATION, priority 2016, dated 2020)
Like-named read-outs stand apart in the source and are kept apart here.

Key:
Assay in all cases: Kinase selectivity, scanMAX Kinase assay panel (DiscoverX), % control at 1 uM
Type in all cases: binding
[1] = molecular target: T1, scanMAX Kinase assay panel (Homo sapiens, UniProt O75582); details: 1 uM, read-out: Percent Control (%)
T1 construct: purchased DiscoverX
Outline: (§1)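 Compounds were tested at 1 uM in DMSO against each enzyme in the panel. Percent control was calculated as (compound − positive control)/(negative control − positive control) × 100, and a compound was scored active on a kinase when this value fell below 35.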

[2] = molecular target: T2, scanMAX Kinase assay panel (Homo sapiens, UniProt P00519, T315I); details: 1 uM, read-out: Percent Control (%)
T2 construct: purchased DiscoverX
Outline: as §1

[3] = molecular target: T3, scanMAX Kinase assay panel (Homo sapiens, UniProt P49137); details: MAPKAPK2; 1 uM; read-out: Percent Control (%)
T3 construct: purchased DiscoverX
Outline: as §1

[4] = molecular target: T4, scanMAX Kinase assay panel (Homo sapiens, UniProt Q05655); details: PRKCD; 1 uM; read-out: Percent Control (%)
T4 construct: purchased DiscoverX
Outline: as §1

[5] = molecular target: T5, scanMAX Kinase assay panel (Homo sapiens, UniProt Q15835); details: GRK1; 1 uM; read-out: Percent Control (%)
T5 construct: purchased DiscoverX
T5 sequence (Q15835 1-563): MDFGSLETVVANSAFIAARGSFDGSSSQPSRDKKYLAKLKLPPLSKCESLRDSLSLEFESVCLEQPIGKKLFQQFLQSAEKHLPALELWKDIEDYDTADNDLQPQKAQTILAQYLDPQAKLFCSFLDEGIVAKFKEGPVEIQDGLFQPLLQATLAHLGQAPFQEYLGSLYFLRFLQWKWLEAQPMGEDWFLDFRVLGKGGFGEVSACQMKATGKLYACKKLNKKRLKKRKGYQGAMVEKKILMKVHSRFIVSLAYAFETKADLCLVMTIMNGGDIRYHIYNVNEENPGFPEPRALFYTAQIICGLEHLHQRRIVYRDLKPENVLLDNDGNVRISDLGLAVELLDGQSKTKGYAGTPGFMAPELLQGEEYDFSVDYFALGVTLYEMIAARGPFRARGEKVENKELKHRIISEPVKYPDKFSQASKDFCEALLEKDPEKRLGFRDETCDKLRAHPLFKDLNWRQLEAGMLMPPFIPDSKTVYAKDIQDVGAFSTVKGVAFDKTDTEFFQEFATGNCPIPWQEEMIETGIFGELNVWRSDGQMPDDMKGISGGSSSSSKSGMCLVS
Outline: as §1

[6] = molecular target: T6, scanMAX Kinase assay panel (Homo sapiens, UniProt Q86UX6); details: YANK3; 1 uM; read-out: Percent Control (%)
T6 construct: purchased DiscoverX
Outline: as §1

[7] = molecular target: T7, scanMAX Kinase assay panel (Homo sapiens, UniProt Q86V86); details: PIM3; 1 uM; read-out: Percent Control (%)
T7 construct: purchased DiscoverX
Outline: as §1

[8] = molecular target: T8, scanMAX Kinase assay panel (Homo sapiens, UniProt Q9BXA7); details: TSSK1B; 1 uM; read-out: Percent Control (%)
T8 construct: purchased DiscoverX
T8 sequence (Q9BXA7 1-367): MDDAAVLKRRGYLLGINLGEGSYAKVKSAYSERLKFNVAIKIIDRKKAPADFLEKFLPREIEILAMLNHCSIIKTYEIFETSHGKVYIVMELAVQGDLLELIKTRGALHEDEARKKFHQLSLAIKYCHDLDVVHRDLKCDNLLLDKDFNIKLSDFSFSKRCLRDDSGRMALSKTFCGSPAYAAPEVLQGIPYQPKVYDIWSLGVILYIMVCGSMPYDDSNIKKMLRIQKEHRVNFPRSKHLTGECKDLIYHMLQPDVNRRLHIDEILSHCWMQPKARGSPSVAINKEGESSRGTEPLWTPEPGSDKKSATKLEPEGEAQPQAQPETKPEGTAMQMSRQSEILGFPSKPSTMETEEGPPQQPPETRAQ
Outline: as §1

[9] = molecular target: T9, scanMAX Kinase assay panel (Homo sapiens, UniProt Q9UKE5); details: TNIK; 1 uM; read-out: Percent Control (%)
T9 construct: purchased DiscoverX
Outline: as §1

[10] = molecular target: T10, scanMAX Kinase assay panel (Homo sapiens, UniProt Q9Y2U5); details: MAP3K2; 1 uM; read-out: Percent Control (%)
T10 construct: purchased DiscoverX
T10 sequence (Q9Y2U5 1-619): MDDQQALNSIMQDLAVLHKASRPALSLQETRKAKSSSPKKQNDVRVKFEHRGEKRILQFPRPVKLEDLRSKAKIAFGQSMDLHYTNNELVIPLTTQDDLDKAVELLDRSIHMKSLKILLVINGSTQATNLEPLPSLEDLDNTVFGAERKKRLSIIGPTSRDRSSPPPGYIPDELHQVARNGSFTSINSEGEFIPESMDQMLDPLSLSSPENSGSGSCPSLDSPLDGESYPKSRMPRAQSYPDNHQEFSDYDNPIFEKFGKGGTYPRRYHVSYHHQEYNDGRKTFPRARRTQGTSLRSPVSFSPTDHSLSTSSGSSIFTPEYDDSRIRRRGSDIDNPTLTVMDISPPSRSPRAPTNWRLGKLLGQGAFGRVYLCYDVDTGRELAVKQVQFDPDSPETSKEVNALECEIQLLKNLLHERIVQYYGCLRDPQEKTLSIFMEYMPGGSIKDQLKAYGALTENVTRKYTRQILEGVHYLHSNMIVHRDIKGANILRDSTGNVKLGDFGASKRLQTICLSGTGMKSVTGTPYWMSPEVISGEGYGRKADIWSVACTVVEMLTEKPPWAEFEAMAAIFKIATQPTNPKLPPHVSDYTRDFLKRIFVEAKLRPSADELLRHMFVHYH
Outline: as §1

T1 sequence (O75582 whole entry): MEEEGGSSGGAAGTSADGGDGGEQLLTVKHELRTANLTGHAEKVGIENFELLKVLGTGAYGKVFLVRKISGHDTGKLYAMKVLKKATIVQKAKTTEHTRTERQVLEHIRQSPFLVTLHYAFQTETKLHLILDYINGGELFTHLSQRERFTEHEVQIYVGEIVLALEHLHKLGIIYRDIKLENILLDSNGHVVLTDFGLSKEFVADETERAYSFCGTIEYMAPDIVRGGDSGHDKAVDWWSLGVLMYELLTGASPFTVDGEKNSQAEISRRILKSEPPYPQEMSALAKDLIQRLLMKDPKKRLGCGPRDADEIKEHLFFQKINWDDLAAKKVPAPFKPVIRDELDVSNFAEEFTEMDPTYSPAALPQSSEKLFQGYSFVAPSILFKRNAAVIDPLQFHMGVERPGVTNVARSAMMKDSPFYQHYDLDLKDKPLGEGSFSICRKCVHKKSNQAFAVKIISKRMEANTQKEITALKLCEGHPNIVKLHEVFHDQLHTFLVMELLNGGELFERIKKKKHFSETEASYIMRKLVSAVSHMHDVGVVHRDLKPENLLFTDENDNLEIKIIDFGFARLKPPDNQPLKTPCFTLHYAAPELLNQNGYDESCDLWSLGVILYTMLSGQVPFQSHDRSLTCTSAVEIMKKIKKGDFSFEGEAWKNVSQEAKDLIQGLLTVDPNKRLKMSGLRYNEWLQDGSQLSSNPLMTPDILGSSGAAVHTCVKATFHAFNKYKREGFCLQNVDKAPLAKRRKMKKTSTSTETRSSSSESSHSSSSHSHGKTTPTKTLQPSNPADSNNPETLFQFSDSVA
T4 sequence (Q05655 whole entry): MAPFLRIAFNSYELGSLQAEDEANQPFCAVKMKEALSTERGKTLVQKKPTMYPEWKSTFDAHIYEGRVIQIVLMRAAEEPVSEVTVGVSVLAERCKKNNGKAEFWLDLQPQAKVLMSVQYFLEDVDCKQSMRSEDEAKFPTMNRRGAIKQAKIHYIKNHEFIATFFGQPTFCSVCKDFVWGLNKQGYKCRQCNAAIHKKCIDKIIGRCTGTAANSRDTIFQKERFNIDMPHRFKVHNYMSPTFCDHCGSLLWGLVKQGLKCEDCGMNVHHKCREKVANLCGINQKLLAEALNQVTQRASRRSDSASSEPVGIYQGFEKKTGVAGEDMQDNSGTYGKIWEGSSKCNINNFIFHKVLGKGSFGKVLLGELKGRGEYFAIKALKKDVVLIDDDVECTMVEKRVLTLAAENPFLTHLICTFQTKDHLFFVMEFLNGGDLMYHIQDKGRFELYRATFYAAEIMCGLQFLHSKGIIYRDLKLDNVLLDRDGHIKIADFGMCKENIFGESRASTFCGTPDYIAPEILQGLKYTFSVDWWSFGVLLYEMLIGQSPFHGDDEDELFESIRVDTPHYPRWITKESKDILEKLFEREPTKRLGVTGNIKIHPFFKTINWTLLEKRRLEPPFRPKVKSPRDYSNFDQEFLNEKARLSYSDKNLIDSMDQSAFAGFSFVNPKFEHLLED
T6 sequence (Q86UX6 whole entry): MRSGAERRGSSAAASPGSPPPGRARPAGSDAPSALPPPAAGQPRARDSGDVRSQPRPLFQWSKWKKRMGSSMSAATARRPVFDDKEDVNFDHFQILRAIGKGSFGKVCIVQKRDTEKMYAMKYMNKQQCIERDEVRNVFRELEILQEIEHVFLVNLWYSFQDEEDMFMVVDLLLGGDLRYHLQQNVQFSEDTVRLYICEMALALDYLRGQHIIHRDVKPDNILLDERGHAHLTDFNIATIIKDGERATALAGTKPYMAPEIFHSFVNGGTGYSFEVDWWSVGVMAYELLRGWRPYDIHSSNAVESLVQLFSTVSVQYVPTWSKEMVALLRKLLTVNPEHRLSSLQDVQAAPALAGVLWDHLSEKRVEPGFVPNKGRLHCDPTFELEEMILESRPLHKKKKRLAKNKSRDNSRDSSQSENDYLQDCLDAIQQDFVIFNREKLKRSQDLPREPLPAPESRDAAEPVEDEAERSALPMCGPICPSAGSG
T3 sequence (P49137 whole entry): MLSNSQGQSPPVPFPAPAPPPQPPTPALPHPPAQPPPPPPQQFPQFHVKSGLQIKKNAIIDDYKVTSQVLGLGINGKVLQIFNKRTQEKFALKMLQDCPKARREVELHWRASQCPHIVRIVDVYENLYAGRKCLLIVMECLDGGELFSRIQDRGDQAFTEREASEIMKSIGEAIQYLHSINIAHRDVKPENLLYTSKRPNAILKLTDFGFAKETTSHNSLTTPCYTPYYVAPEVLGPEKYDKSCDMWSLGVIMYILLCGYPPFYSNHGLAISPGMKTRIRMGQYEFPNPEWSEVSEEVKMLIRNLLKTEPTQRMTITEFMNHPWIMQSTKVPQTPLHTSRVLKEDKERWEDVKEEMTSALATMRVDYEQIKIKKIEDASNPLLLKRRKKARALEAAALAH
T9 sequence (Q9UKE5 whole entry): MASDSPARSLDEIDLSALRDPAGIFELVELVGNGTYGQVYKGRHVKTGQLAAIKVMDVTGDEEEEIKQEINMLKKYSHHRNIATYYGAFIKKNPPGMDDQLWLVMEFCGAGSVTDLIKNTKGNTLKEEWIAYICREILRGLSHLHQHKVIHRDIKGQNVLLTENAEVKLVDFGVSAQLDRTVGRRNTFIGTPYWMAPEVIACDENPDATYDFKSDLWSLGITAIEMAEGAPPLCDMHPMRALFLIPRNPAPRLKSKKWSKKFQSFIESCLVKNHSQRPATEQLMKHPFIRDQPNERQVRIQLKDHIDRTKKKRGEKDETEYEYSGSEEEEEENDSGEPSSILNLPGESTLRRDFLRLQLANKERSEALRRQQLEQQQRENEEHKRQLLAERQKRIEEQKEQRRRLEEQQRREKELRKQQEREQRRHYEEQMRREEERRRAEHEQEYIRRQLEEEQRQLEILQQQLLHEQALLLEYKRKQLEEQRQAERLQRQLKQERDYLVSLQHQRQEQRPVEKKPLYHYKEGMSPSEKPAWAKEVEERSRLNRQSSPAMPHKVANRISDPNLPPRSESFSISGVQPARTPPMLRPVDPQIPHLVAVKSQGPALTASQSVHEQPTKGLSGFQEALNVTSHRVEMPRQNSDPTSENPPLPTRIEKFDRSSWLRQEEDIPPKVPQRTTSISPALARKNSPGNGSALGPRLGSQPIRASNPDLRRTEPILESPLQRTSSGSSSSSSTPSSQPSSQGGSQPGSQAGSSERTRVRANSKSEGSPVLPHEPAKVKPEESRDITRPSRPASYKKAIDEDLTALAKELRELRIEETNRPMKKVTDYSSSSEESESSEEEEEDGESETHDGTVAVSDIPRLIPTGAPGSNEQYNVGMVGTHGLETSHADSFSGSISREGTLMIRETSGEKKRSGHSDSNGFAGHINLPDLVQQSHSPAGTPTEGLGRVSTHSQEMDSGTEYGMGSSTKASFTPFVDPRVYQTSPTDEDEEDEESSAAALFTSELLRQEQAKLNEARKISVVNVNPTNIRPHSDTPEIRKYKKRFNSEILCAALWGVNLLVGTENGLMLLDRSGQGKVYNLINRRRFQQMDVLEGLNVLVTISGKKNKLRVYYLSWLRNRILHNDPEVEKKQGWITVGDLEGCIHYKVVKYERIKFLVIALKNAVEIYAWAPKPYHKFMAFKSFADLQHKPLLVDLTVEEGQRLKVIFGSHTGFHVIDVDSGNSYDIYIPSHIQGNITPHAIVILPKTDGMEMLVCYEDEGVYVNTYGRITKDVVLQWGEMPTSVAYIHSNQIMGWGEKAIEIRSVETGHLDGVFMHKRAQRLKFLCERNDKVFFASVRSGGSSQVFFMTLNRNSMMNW

SMILES	remaining binding at 1 µM ([1]; RPS6KA5 (Kin.Dom.1-N-terminal))	remaining binding at 1 µM ([1]; RPS6KA5 (Kin.Dom.2-C-terminal))	remaining binding at 1 µM ([2]; ABL1 (T315I)-nonphosphorylated)	remaining binding at 1 µM ([2]; ABL1 (T315I)-phosphorylated)	remaining binding at 1 µM [3]	remaining binding at 1 µM [4]	remaining binding at 1 µM [5]	remaining binding at 1 µM [6]	remaining binding at 1 µM [7]	remaining binding at 1 µM [8]	remaining binding at 1 µM [9]	remaining binding at 1 µM [10]
Cc1ccc(C(=O)Nc2ccc(CN3CCN(C)CC3)c(C(F)(F)F)c2)cc1C#Cc1cnc2c(Nc3cnn(C)c3)cccn12 [Example 1, 4-methyl-3-((8-((1-methyl-1H-pyrazol-4-yl)amino)imidazo[1,2-a]pyridin-3-yl)ethynyl)-N-(4-((4-methylpiperazin-1-yl)methyl)-3-(trifluoromethyl)phenyl)benzamide]	38%	69%	1%	1%	100%	61%	65%	74%	88%	95%	11%	1%
Cc1cn(-c2cc(NC(=O)c3ccc(C)c(C#Cc4cnc5c(Nc6cnn(C)c6)cccn45)c3)cc(C(F)(F)F)c2)cn1 [Example 12, 4-methyl-N-(3-(4-methyl-1H-imidazol-1-yl)-5-(trifluoromethyl)phenyl)-3-((8-((1-methyl-1H-pyrazol-4-yl)amino)imidazo[1,2-a]pyridin-3-yl)ethynyl)benzamide]	99%	94%	15%	15%	81%	81%	85%	81%	90%	61%	17%	84%
Cc1ccc(NC(=O)C2(C(=O)Nc3ccc(F)cc3)CC2)cc1C#Cc1cnc2c(Nc3cnn(C(C)C)c3)cccn12 [Example 78]	100%	100%	100%	100%	98%	100%	99%	99%	100%	100%	88%	100%
